# In patent US20120128630A1, “1-(6 MEMBERS AZO-HETEROCYCLIC)-PYRROLIN-2-ONE COMPOUNDS AS INHIBITORS OF HEPATITIS C NS5B POLYMERASE, THE PHARAMACEUTICAL COMPOSITION THEREOF AND THEIR THERAPEUTIC USE” (priority 2009, published 2012):
# Where two headings read alike, the source gives them in different places.
# Columns and labels:
# [1] = biological target: T1, HCV NS5B with a deletion of the 21 C-terminal amino acids (Hepatitis C virus genotype 1b, UniProt Q9WMX2); test: HCV NS5B RdRp enzyme assay; format: biochemical
# T1 construct: purified HCV NS5B with a deletion of the 21 C-terminal amino acids
# Procedure: The assay was performed in a total volume of 20 μl containing 20 mM Tris pH 7.5, 1 mM DTT, 17 U RNasin, 50 mM NaCl, 10% DMSO, 5 mM MgCl2, 0.5 mM each of the 3 NTPs (ATP, CTP, GTP), 86 nM RNA template (341 nt from the 3′ end of HCV minus strand RNA), 50 nM of purified HCV NS5B with a deletion of the 21 C-terminal amino acids and 2 μCi [^3H]UTP (46 Ci.mmol^−1). The reaction mixture was incubated for 2 h at 25-30° C. and the radiolabeled products were precipitated by the addition of 10% TCA. The radioactivity incorporated was quantified by counting in a Wallac scintillation counter. Increasing concentrations of tested compounds were added to the complete RdRp reaction mixture. After a two hour incubation period at 25-30° C., the amount of labeled product was determined as above. Two types of control reactions were done: a negative control corresponding to the complete mixture without enzyme and a positive control with enzyme but without compounds. In each experiment, test and control samples are in duplicate.
# The level of activity with each compound concentration was expressed with the formulae: […]
# The IC50 value was calculated as the compound concentration reducing polymerase activity by 50%.
# [2] = biological target: T2, HCV NS5B genotype 1b (Hepatitis C virus genotype 1b, UniProt Q9WMX2); test: 3D-SCREEN assay (NS5B 3D-Screen platform, luciferase reporter gene); format: cell-based
# T2 construct: The protein was expressed with a 21 amino acid C-terminal deletion to remove transmembrane domain; expressed in transfected cells; host or cells: Huh-7
# Outline: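 Huh-7 cells transiently co-transfected with NS5BΔ21/Gal4-DBD, 3D-Sensor peptide I4/VP16 and firefly luciferase reporter. Compounds added 2 h after seeding, 1% DMSO final, 24 h incubation. Luciferase luminescence read; % inhibition relative to no-compound signal.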
# [3] = tested on: HCV replicon Luc Neo ET; test: Luc Neo ET Replicon assay; format: cell-based, Hepatitis C virus; conditions: Table 3, titled RdRp enzyme assay results, EC50_Replicon LucneoET, 72 hours with compound, luciferase
# Outline: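 Huh-7-derived Luc Neo ET bicistronic HCV replicon cells (adaptive mutations E1202G, T1280I, K1846T) treated 24 h after seeding with compounds for 72 h, 1% DMSO final, 37 °C. Firefly luciferase luminescence read after lysis; % inhibition from background-corrected RLU relative to untreated signal.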
# [4] = EC50_3DS_NS5B, Table 2, titled Replicon assay results
SMILES,melting point,inhibition at 10 µM [1],"EC50 ([2]; EC50_3DS_NS5B, Table 1, 3D-SCREEN assay results, Huh-7 cells, 24 hours with compound, firefly luciferase reporter)","EC50 ([3]; Hepatitis C virus, 72 h)","EC50 [2, 4]","EC50 ([2]; read-out: EC50_3DS_NS5B, Table 2, titled Replicon assay results)",EC50 [3]
"Cc1ccc(N2C(=O)C(O)=C(C(=O)c3ccc(C(C)C)cc3)C2c2ccc(C(F)(F)F)cc2)nn1 (stereo not shown) [Example 63, 3-hydroxy-4-(4-isopropyl-benzoyl)-1-(6-methyl-pyridazin-3-yl)-5-(4-trifluoromethyl-phenyl)-1,5-dihydro-pyrrol-2-one]",268 to 270 °C,50%,60 nM,100 nM,–,–,–
"Cc1cnc(N2C(=O)C(O)=C(C(=O)c3ccc(C(C)C)cc3)C2c2ccc(OC(F)(F)F)cc2)cn1 (stereo not shown) [Example 128, 3-hydroxy-4-(4-isopropyl-benzoyl)-1-(5-methyl-pyrazin-2-yl)-5-(4-trifluoromethoxy-phenyl)-1,5-dihydro-pyrrol-2-one]",266 to 268 °C,–,–,< 10000 nM,< 1000 nM,–,–
"COc1ccc(N2C(=O)C(O)=C(C(=O)c3ccc(C(C)C)cc3)C2c2ccc(OC(F)(F)F)cc2)nn1 (stereo not shown) [Example 129, 3-hydroxy-4-(4-isopropyl-benzoyl)-1-(6-methoxy-pyridazin-3-yl)-5-(4-trifluoromethoxy-phenyl)-1,5-dihydro-pyrrol-2-one]",271 °C,–,–,< 10000 nM,< 1000 nM,–,–
"CC(C)c1ccc(C(=O)C2=C(O)C(=O)N(c3cccn(C)c3=O)C2c2ccc(OC(F)(F)F)cc2)cc1 (stereo not shown) [Example 130, 3-[3-hydroxy-4-(4-isopropyl-benzoyl)-2-oxo-5-(4-trifluoromethoxy-phenyl)-2,5-dihydro-pyrrol-1-yl]-1-methyl-1H-pyridin-2-one]",207 °C,–,–,< 10000 nM,< 10000 nM,–,–
"Cc1ccc(N2C(=O)C(O)=C(C(=O)c3ccc(CC(C)C)cc3)C2c2ccc(OC(F)(F)F)cc2)nn1 (stereo not shown) [Example 131, 3-hydroxy-4-(4-isobutyl-benzoyl)-1-(6-methyl-pyridazin-3-yl)-5-(4-trifluoromethoxy-phenyl)-1,5-dihydro-pyrrol-2-one]",260 °C,–,–,< 10000 nM,< 1000 nM,–,–
"Cc1ccc(N2C(=O)C(Cl)=C(C(=O)c3ccc(C(C)C)cc3)C2c2ccc(OC(F)(F)F)cc2)nn1 (stereo not shown) [Example 138, 3-chloro-4-(4-isopropyl-benzoyl)-1-(6-methyl-pyridazin-3-yl)-5-(4-trifluoromethoxy-phenyl)-1,5-dihydro-pyrrol-2-one]",293 °C,–,–,< 10000 nM,< 10000 nM,–,–
"C=C(C)c1ccc(C(=O)C2=C(O)C(=O)N(c3ccc(C)nn3)C2c2ccc(OC(F)(F)F)cc2)cc1 (stereo not shown) [Example 142, 3-hydroxy-4-(4-isopropenyl-benzoyl)-1-(6-methyl-pyridazin-3-yl)-5-(4-trifluoromethoxy-phenyl)-1,5-dihydro-pyrrol-2-one]",253 °C,–,–,< 10000 nM,< 1000 nM,–,–
"Cc1ccc(N2C(=O)C(O)=C(C(=O)c3ccc(C(C)C)cc3)C2c2ccc(OC3CCOCC3)cc2)nn1 (stereo not shown) [Example 143, 3-hydroxy-4-(4-isopropyl-benzoyl)-1-(6-methyl-pyridazin-3-yl)-5-[4-(tetrahydro-pyran-4-yloxy)-phenyl]-1,5-dihydro-pyrrol-2-one]",275 °C,–,–,< 10000 nM,< 10000 nM,–,–
"CC(C)c1ccc(C(=O)C2=C(O)C(=O)N(c3ccc(O)nn3)C2c2ccc(OC(F)(F)F)cc2)cc1 (stereo not shown) [Example 159, 3-hydroxy-1-(6-hydroxy-pyridazin-3-yl)-4-(4-isopropyl-benzoyl)-5-(4-trifluoromethoxy-phenyl)-1,5-dihydro-pyrrol-2-one]",255 °C,–,–,< 10000 nM,< 1000 nM,–,–
"C=C(C)c1ccc(C2C(C(=O)c3ccc(C(C)C)cc3)=C(O)C(=O)N2c2ccc(C)nn2)cc1 (stereo not shown) [Example 160, 3-hydroxy-5-(4-isopropenyl-phenyl)-4-(4-isopropyl-benzoyl)-1-(6-methyl-pyridazin-3-yl)-1,5-dihydro-pyrrol-2-one]",274 °C,–,–,< 10000 nM,< 1000 nM,–,–
"CC(C)c1ccc(C(=O)C2=C(O)C(=O)N(c3ccc(OCc4ccccc4)nn3)C2c2ccc(OC(F)(F)F)cc2)cc1 (stereo not shown) [Example 161, 1-(6-benzyloxy-pyridazin-3-yl)-3-hydroxy-4-(4-isopropyl-benzoyl)-5-(4-trifluoromethoxy-phenyl)-1,5-dihydro-pyrrol-2-one]",269 °C,–,–,< 10000 nM,< 1000 nM,–,–
"Cc1ccc(N2C(=O)C(O)=C(C(=O)c3ccc(C(C)C)cc3)C2c2ccc(OC(C)C)nc2)nn1 (stereo not shown) [Example 165, 3-hydroxy-5-(6-isopropoxy-pyridin-3-yl)-4-(4-isopropyl-benzoyl)-1-(6-methyl-pyridazin-3-yl)-1,5-dihydro-pyrrol-2-one]",282 °C,–,–,< 1000 nM,< 1000 nM,–,–
"Cc1ccc(N2C(=O)C(O)=C(C(=O)c3ccc(C(C)C)cc3)C2c2ccc(OC(C)C)nc2)nn1.Cl (stereo not shown) [Example 167, 3-hydroxy-5-(6-isopropoxy-pyridin-3-yl)-4-(4-isopropyl-benzoyl)-1-(6-methyl-pyridazin-3-yl)-1,5-dihydro-pyrrol-2-one; hydrochloride]",280 °C,–,–,–,–,< 1000 nM,< 1000 nM
"Cc1ccc(N2C(=O)C(O)=C(C(=O)c3ccc(C(C)C)cc3)[C@H]2c2ccc(OC(F)(F)F)cc2)nn1 [Example 188, 3-hydroxy-4-(4-isopropyl-benzoyl)-1-(6-methyl-pyridazin-3-yl)-5(R)-(4-trifluoromethoxy-phenyl)-1,5-dihydro-pyrrol-2-one]",217 °C,–,–,< 100 nM,< 100 nM,–,–
"Cc1ccc(N2C(=O)C(O)=C(C(=O)c3ccc(C(C)C)cc3)[C@@H]2c2ccc(OC(F)(F)F)cc2)nn1 [Example 189, 3-hydroxy-4-(4-isopropyl-benzoyl)-1-(6-methyl-pyridazin-3-yl)-5(S)-(4-trifluoromethoxy-phenyl)-1,5-dihydro-pyrrol-2-one]",221 °C,–,–,< 10000 nM,< 10000 nM,–,–
"Cc1ccc(N2C(=O)C(O)=C(C(=O)c3ccc(C(C)C)cc3)[C@H]2c2ccc(C(F)(F)F)cc2)nn1 [Example 191, 3-hydroxy-4-(4-isopropyl-benzoyl)-1-(6-methyl-pyridazin-3-yl)-5(R)-(4-trifluoromethyl-phenyl)-1,5-dihydro-pyrrol-2-one]",251 °C,–,–,< 100 nM,< 100 nM,–,–
"Cc1ccc(C(=O)C2=C(O)C(=O)N(c3ccc(C)nn3)[C@@H]2c2ccc(OC(F)(F)F)cc2)cc1 [Example 199, 3-hydroxy-4-(4-methyl-benzoyl)-1-(6-methyl-pyridazin-3-yl)-5(R)-(4-trifluoromethoxy-phenyl)-1,5-dihydro-pyrrol-2-one]",215 °C,–,–,< 1000 nM,< 1000 nM,–,–
